System: TT cells (human thyroid cancer cell line with RET activating mutation)
Experiment: In vivo antitumor effect, mice subcutaneously implanted with TT cells
Design: species or system BALB/cA Jcl-nu/nu male mice
Conditions: 100 mg/kg/day oral for 14 days, day 15, Table 54
Procedure: Human thyroid cancer cell lines (TT) were subcutaneously implanted into the right frank of 6- to 7-week-old BALB/cA Jcl-nu/nu male mice. After about 2 to 3 weeks from the cell implantation, the length (mm) and the width (mm) of tumors found in mouse bodies were measured. […] The day on which the mice were divided into groups was determined to be the “grouping day” (day 0 or 1).
A control group was administered a solvent (0.5% HPMC/0.1N HCl).
To determine the index of the antitumor effect, TV of each drug-administrated group was measured on day 15, and the tumor volume on day 15 relative to the tumor volume on the grouping day (day 0 or 1) (relative tumor volume: RTV) and T/C (%) were calculated from the following equations, and the antitumor effect was evaluated. […] TV (mm^3)=(length×width^2)/2 RTV=(TV on day 15)/(TV on day 0 or day 1) T/C(%)=(the mean RTV of a test compound treatment group)/(the mean RTV of the control group)×100

In the case of `COCc1ccc(NC(=O)c2c(C#CCN3CCOCC3)n(C3(C)CC3)c3ncnc(N)c23)cc1` [Example 85, 4-amino-N-[4-(methoxymethyl)phenyl]-7-(1-methylcyclopropyl)-6-(3-morpholinoprop-1-yn-1-yl)-7H-pyrrolo[2,3-d]pyrimidine-5-carboxamide], the “T/C (%)” value is reported as 23%.

With `COCc1ccc(NC(=O)c2c(C#CCN3CCOCC3)n(C3(C)CC3)c3ncnc(N)c23)cc1` [Example 85, 4-amino-N-[4-(methoxymethyl)phenyl]-7-(1-methylcyclopropyl)-6-(3-morpholinoprop-1-yn-1-yl)-7H-pyrrolo[2,3-d]pyrimidine-5-carboxamide] the “TV (mm^3) Day 15 Mean ± SE” value was 139.42 mm^3.

Same assay, conditions: 100 mg/kg/day oral for 14 days, day 15 relative to day 0, Table 54

With `COCc1ccc(NC(=O)c2c(C#CCN3CCOCC3)n(C3(C)CC3)c3ncnc(N)c23)cc1` [Example 85, 4-amino-N-[4-(methoxymethyl)phenyl]-7-(1-methylcyclopropyl)-6-(3-morpholinoprop-1-yn-1-yl)-7H-pyrrolo[2,3-d]pyrimidine-5-carboxamide] the “RTV Day 15 Mean ± SE” value was 0.87.

Same assay, conditions: 100 mg/kg/day oral, grouping day (day 0), Table 54

For `COCc1ccc(NC(=O)c2c(C#CCN3CCOCC3)n(C3(C)CC3)c3ncnc(N)c23)cc1` [Example 85, 4-amino-N-[4-(methoxymethyl)phenyl]-7-(1-methylcyclopropyl)-6-(3-morpholinoprop-1-yn-1-yl)-7H-pyrrolo[2,3-d]pyrimidine-5-carboxamide], the “TV (mm^3) Day 0 Mean ± SE” value was 169.45 mm^3.

System: not given
Experiment: not given
Conditions: mouse, microsomes, 0.5 h, 1 μM

For `C/C=C/c1ccc(NC(=O)c2c(OCC)n(C3(C)CC3)c3ncnc(N)c23)cc1` [Example 117, (E)-4-amino-6-ethoxy-7-(1-methylcyclopropyl)-N-(4-(prop-1-en-1-yl)phenyl)-7H-pyrrolo[2,3-d]pyrimidine-5-carboxamide], the “Remaining (%)” value was 53%.

System: not listed separately
Experiment: Evaluation of stability in liver microsome
Conditions: mouse liver microsome 0.25 mg/mL, test compound 1 μM, 37° C., 30 minutes

Point of comparison: `COCc1ccc(NC(=O)c2c(C#Cc3cnc[nH]3)n(C3(C)CC3)c3ncnc(N)c23)cc1` [Example 191, 6-((1H-imidazol-5-yl)ethynyl)-4-amino-N-(4-(methoxymethyl)phenyl)-7-(1-methylcyclopropyl)-7H-pyrrolo[2,3-d]pyrimidine-5-carboxamide], “Remaining (%)” value 53%. Against it:
- COCc1ccc(NC(=O)c2c(-c3ccc(CO)nc3)n(C3(C)CC3)c3ncnc(N)c23)cc1 [Example 179, 4-amino-6-(6-(hydroxymethyl)pyridin-3-yl)-N-(4-(methoxymethyl)phenyl)-7-(1-methylcyclopropyl)-7H-pyrrolo[2,3-d]pyrimidine-5-carboxamide] — higher, 85%
- COCc1ccc(NC(=O)c2c(C#Cc3cn(C)nc3C)n(C3(C)CC3)c3ncnc(N)c23)cc1 [Example 181, 4-amino-6-((1,3-dimethyl-1H-pyrazol-4-yl)ethynyl)-N-(4-(methoxymethyl)phenyl)-7-(1-methylcyclopropyl)-7H-pyrrolo[2,3-d]pyrimidine-5-carboxamide] — higher, 62%
- COCc1ccc(NC(=O)c2c(C#Cc3cnn(C)c3C)n(C3(C)CC3)c3ncnc(N)c23)cc1 [Example 182, 4-amino-6-((1,5-dimethyl-1H-pyrazol-4-yl)ethynyl)-N-(4-(methoxymethyl)phenyl)-7-(1-methylcyclopropy1)-7H-pyrrolo[2,3-d]pyrimidine-5-carboxamide] — higher, 61%
- COCc1ccc(NC(=O)c2c(C#CC3CCN(C)CC3)n(C3(C)CC3)c3ncnc(N)c23)cc1 [Example 183, 4-amino-N-(4-(methoxymethyl)phenyl)-7-(1-methylcyclopropyl)-6-((1-methylpiperidin-4-yl)ethynyl)-7H-pyrrolo[2,3-d]pyrimidine-5-carboxamide] — higher, 77%
- COCc1ccc(NC(=O)c2c(C#Cc3c(C)noc3C)n(C3(C)CC3)c3ncnc(N)c23)cc1 [Example 184, 4-amino-6-((3,5-dimethylisoxazol-4-yl)ethynyl)-N-(4-(methoxymethyl)phenyl)-7-(1-methylcyclopropyl)-7H-pyrrolo[2,3-d]pyrimidine-5-carboxamide] — higher, 58%
- COCc1ccc(NC(=O)c2c(C#CC3(O)CCOCC3)n(C3(C)CC3)c3ncnc(N)c23)cc1 [Example 185, 4-amino-6-((4-hydroxytetrahydro-2H-pyran4-yl)ethynyl)-N-(4-(methoxymethyl)phenyl)-7-(1-methylcyclopropyl)-7H-pyrrolo[2,3-d]pyrimidine-5-carboxamide] — higher, 80%
- COCc1ccc(NC(=O)c2c(C#CCCN3CCOCC3)n(C3(C)CC3)c3ncnc(N)c23)cc1 [Example 187, 4-amino-N-(4-(methoxymethyl)phenyl)-7-(1-methylcyclopropyl)-6-(4-morpholinobut-1-yn-1-yl)-7H-pyrrolo [2,3-d]pyrimidine-5-carboxamide] — higher, 68%
- COCc1ccc(NC(=O)c2c(C#CCC(C)O)n(C3(C)CC3)c3ncnc(N)c23)cc1 (stereo not shown) [Example 188, 4-amino-6-(4-hydroxypent-1-yn-1-yl)-N-(4-(methoxymethyl)phenyl)-7-(1-methylcyclopropyl)-7H-pyrrolo[2,3-d]pyrimidine-5-carboxamide] — higher, 68%
- COCc1ccc(NC(=O)c2c(-c3ccc(F)nc3)n(C3(C)CC3)c3ncnc(N)c23)cc1 [Example 190, 4-amino-6-(6-fluoropyridin-3-yl)-N-(4-(methoxymethyl)phenyl)-7-(1-methylcyclopropyl)-7H-pyrrolo[2,3-d]pyrimidine-5-carboxamide] — higher, 58%
- COCc1ccc(NC(=O)c2c(C#Cc3ccc(OC)nc3)n(C3(C)CC3)c3ncnc(N)c23)cc1 [Example 192, 4-amino-N-(4-(methoxymethyl)phenyl)-6-((6-methoxypyridin-3-yl)ethynyl)-7-(1-methylcyclopropyl)-7H-pyrrolo[2,3-d]pyrimidine-5-carboxamide] — higher, 79%
- COCc1ccc(NC(=O)c2c(C#Cc3cncs3)n(C3(C)CC3)c3ncnc(N)c23)cc1 [Example 193, 4-amino-N-[4-(methoxymethyl)phenyl]-7-(1-methylcyclopropyl)-6-(thiazol-5-ylethynyl)-7H-pyrrolo[2,3-d]pyrimidine-5-carboxamide] — lower, 51%
- COCc1ccc(NC(=O)c2c(-c3cncnc3)n(C3(C)CC3)c3ncnc(N)c23)cc1 [Example 194, 4-amino-N-(4-(methoxymethyl)phenyl)-7-(1-methylcyclopropyl)-6-(pyrimidin-5-yl)-7H-pyrrolo[2,3-d]pyrimidine-5-carboxamide] — higher, 67%
- COCc1ccc(NC(=O)c2c(C#Cc3cncc(C#N)c3)n(C3(C)CC3)c3ncnc(N)c23)cc1 [Example 195, 4-amino-6-((5-cyanopyridin-3-yl)ethynyl)-N-(4-(methoxymethyl)phenyl)-7-(1-methylcyclopropyl)-7H-pyrrolo[2,3-d]pyrimidine-5-carboxamide] — higher, 70%
- COCc1ccc(NC(=O)c2c(C#Cc3cncnc3)n(C3(C)CC3)c3ncnc(N)c23)cc1 [Example 196, 4-amino-N-(4-(methoxymethyl)phenyl)-7-(1-methylcyclopropyl)-6-(pyrimidin-5-ylethynyl)-7H-pyrrolo[2,3-d]pyrimidine-5-carboxamide] — the same, 53%
- COCCN(C)CC#Cc1c(C(=O)Nc2ccc(COC)cc2)c2c(N)ncnc2n1C1(C)CC1 [Example 197, 4-amino-6-(3-((2-methoxyethyl)(methyl)amino)prop-1-yn-1-yl)-N-(4-(methoxymethyl)phenyl)-7-(1-methylcyclopropyl)-7H-pyrrolo[2,3-d]pyrimidine-5-carboxamide] — lower, 52%
- COCc1ccc(NC(=O)c2c(C#CCN(C)C)n(C3(C)CC3)c3ncnc(N)c23)cc1 [Example 198, 4-amino-6-(3-(dimethylamino)prop-1-yn-1-yl)-N-(4-(methoxymethyl)phenyl)-7-(1-methylcyclopropyl)-7H-pyrrolo[2,3-d]pyrimidine-5-carboxamide] — higher, 57%
- COCc1ccc(NC(=O)c2c(C#CCC3CCCCC3)n(C3(C)CC3)c3ncnc(N)c23)cc1 [Example 199, 4-amino-6-(3-cyclohexylprop-1-yn-1-yl)-N-(4-(methoxymethyl)phenyl)-7-(1-methylcyclopropyl)-7H-pyrrolo[2,3-d]pyrimidine-5-carboxamide] — higher, 80%
- COCc1ccc(NC(=O)c2c(C3=CCOCC3)n(C3(C)CC3)c3ncnc(N)c23)cc1 [Example 203, 4-amino-6-(3,6-dihydro-2H-pyran-4-yl)-N-(4-(methoxymethyl)phenyl)-7-(1-methylcyclopropyl)-7H-pyrrolo[2,3-d]pyrimidine-5-carboxamide] — higher, 68%
- COCc1ccc(NC(=O)c2c(C(C)O)n(C3(C)CC3)c3ncnc(N)c23)cc1 (stereo not shown) [Example 204, 4-amino-6-(1-hydroxyethyl)-N-(4-(methoxymethyl)phenyl)-7-(1-methylcyclopropyl)-7H-pyrrolo[2,3-d]pyrimidine-5-carboxamide] — higher, 83%
- COCc1ccc(NC(=O)c2c(C#CC3CCOCC3)n(C3(C)CC3)c3ncnc(N)c23)cc1F [Example 205, 4-amino-N-(3-fluoro-4-(methoxymethyl)phenyl)-7-(1-methylcyclopropyl)-6-((tetrahydro-2H-pyran-4-yl)ethynyl)-7H-pyrrolo[2,3-d]pyrimidine-5-carboxamide] — higher, 58%
- COCc1ccc(NC(=O)c2c(C#CCN3CCOCC3)n(C3(C)CC3)c3ncnc(N)c23)cc1F [Example 206, 4-amino-N-(3-fluoro-4-(methoxymethyl)phenyl)-7-(1-methylcyclopropyl)-6-(3-morpholinoprop-1-yn-1-yl)-7H-pyrrolo[2,3-d]pyrimidine-5-carboxamide] — higher, 77%
- CCc1c(C(=O)Nc2ccc(COC)cc2)c2c(N)ncnc2n1C1(C)CC1 [Example 207, 4-amino-6-ethyl-N-(4-(methoxymethyl)phenyl)-7-(1-methylcyclopropyl)-7H-pyrrolo[2,3-d]pyrimidine-5-carboxamide] — higher, 72%
